Data on 52 compounds can be found in patent publication US20190352288A1, “MATRIX METALLOPROTEINASE (MMP) INHIBITORS AND METHODS OF USE THEREOF” (Foresee Pharmaceuticals Co., Ltd., priority 2018, published 2019).

T1 sequence (P39900 106-268 limits assumed): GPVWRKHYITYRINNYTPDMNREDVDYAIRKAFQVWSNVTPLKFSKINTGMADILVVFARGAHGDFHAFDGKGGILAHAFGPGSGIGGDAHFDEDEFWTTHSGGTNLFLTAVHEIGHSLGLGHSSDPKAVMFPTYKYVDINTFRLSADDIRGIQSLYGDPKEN

This test addresses T1, recombinant human MMP-12 catalytic domain (Homo sapiens, UniProt P39900).
T1 construct: recombinant human MMP-12 catalytic domain; purchased Enzo BML-SE138
Description: MMP-12 inhibitory assay (fluorogenic substrate cleavage). The test is classed as biochemical. Particulars: readout at 30 minutes, 37° C., Table 1. The protocol: The inhibitory effect of compounds on the rate of cleaving fluorogenic MMP substrate (Enzo, BML-P128) by recombinant human MMP-12 catalytic domain (Enzo, BML-SE138) was carried out by methods known in the art. Briefly, to each well of a 96-well black opaque plate, all the reagents were sequentially added by pipetting, and the final reaction contained 4 nM of recombinant human MMP-12 catalytic domain, 4 μM of fluorogenic MMP substrate, and various concentrations (0.15 nM to 10,000 nM) of tested compound dilutions in HEPES buffer (pH 7.5) containing 10 mM of CaCl2), 0.01% Brij® 35 (polyoxyethylene (23) lauryl ether), and 0.1 mg/ml of BSA.
The enzyme and compounds were pre-incubated on a shaker to mix in wells. After an hour of mixing, fluorogenic substrate was added to each well. Reaction without enzyme was used as a blank control in the plate. The plate was then fed into a plate reader to measure fluorescence intensity at Excitation/Emission wavelengths of 340 nm/440 nm every 10 mins for at least 1 hour at 37° C. The IC50 of each compound in MMP-12 inhibition was determined by using a readout obtained at time point 30 minutes.
The term IC50 denotes the midpoint of a concentration-inhibition curve. With `Cc1cccc(COc2ccc(Sc3ccncc3C3NC(=O)NC3=O)cc2)c1` (stereo not shown) [PC-2], the IC50 lay in the range of 10 to 100 nM.

As to `COc1ccc(CN2C(=O)NC(c3cnccc3Sc3ccc(OCc4ccnc(C)c4)cc3)C2=O)cc1` (stereo not shown) [PC-55], the IC50 lay within 100 to 1000 nM.

For `Cc1cc(COc2ccc(Sc3ccncc3C3NC(=O)NC3=O)c(C)c2)ccn1` (stereo not shown) [PC-42], the IC50 was 10 to 100 nM.

For the compound `Cc1cccc(COc2ccc(Sc3ccccc3C3NC(=O)NC3=O)cc2)c1` (stereo not shown) [OC-1], the IC50 was in the range of 10 to 100 nM.

Regarding `Cc1cccc(COc2ccc(Sc3cccnc3C3NC(=O)NC3=O)cc2)c1` (stereo not shown) [PC-3], the IC50 was in the range of 10 to 100 nM.

As for `Cc1cccc(COc2ccc(Sc3ncn(C)c3C3NC(=O)NC3=O)cc2)c1` (stereo not shown) [OC-6], the IC50 fell in the range of 10 to 100 nM.

Regarding `COc1cc(COc2ccc(Sc3ccncc3C3NC(=O)NC3=O)cc2)ccn1` (stereo not shown) [PC-30], the IC50 lay in the range of 10 to 100 nM.

As for `NC(=O)c1cc(COc2ccc(Sc3ccncc3C3NC(=O)NC3=O)cc2)ccn1` (stereo not shown) [PC-59], the IC50 was 100 to 1000 nM.

Turning to `Cc1cc(COc2ccc(Sc3c(C4NC(=O)NC4=O)ncn3C)cc2)ccn1` (stereo not shown) [OC-14], the IC50 lay in the range of 10 to 100 nM.

For the compound `NC(=O)c1ccc(COc2ccc(Sc3ccncc3C3NC(=O)NC3=O)cc2)cc1` (stereo not shown) [PC-37], the IC50 was in the range of 100 to 1000 nM.

With `Cc1cc(COc2ccc(Sc3ccncc3C3NC(=O)NC3=O)cc2Cl)ccn1` (stereo not shown) [PC-49], the IC50 was in the range of 10 to 100 nM.

For `CC(C)Oc1cc(COc2ccc(Sc3ccncc3C3NC(=O)NC3=O)cc2)ccn1` (stereo not shown) [PC-32], the IC50 was 10 to 100 nM.

Take `Cc1cncc(COc2ccc(Sc3cnccc3C3NC(=O)NC3=O)cc2)c1` (stereo not shown) [PC-19]: the IC50 is 100 to 1000 nM.

Take `Cc1cccc(COc2ccc(S(=O)(=O)c3cc[n+](O)cc3C3NC(=O)NC3=O)cc2)c1` (stereo not shown) [OC-4]: the IC50 was more than 1000 nM.

On to `Cc1cc(COc2ccc(Sc3ccncc3C3NC(=O)NC3=O)cc2F)ccn1` (stereo not shown) [PC-52], for which the IC50 was 10 to 100 nM.

For `Cc1cc(CN(C)c2ccc(Sc3ccncc3C3NC(=O)NC3=O)cc2)ccn1` (stereo not shown) [PC-58], the IC50 fell in the range of 10 to 100 nM.

For `O=C1NC(=O)C(c2cnccc2Oc2ccc(OCc3cccc(C(=O)O)c3)cc2)N1` (stereo not shown) [PC-23], the IC50 is more than 1000 nM.

Consider `CCOc1cccc(COc2ccc(Sc3ccsc3C3NC(=O)NC3=O)cc2)c1` (stereo not shown) [TC2], for which the IC50 fell in the range of 100 to 1000 nM.

For the compound `CCOc1cc(COc2ccc(Sc3ccncc3C3NC(=O)NC3=O)cc2)ccn1` (stereo not shown) [PC-31], the IC50 lay in the range of 10 to 100 nM.

Consider `O=C1NC(=O)C(c2ccncc2Sc2ccc(OCc3ccnc(CO)c3)cc2)N1` (stereo not shown) [PC-53], for which the IC50 lay in the range of 10 to 100 nM.

For the compound `Cc1cc(CCc2ccc(Sc3ccncc3C3NC(=O)NC3=O)cc2)ccn1` (stereo not shown) [PC-57], the IC50 lay in the range of 10 to 100 nM.

In the case of `Cc1cc(CCc2ccc(Oc3ccncc3C3NC(=O)NC3=O)cc2)ccn1` (stereo not shown) [PC-62], the IC50 was in the range of 100 to 1000 nM.

Consider `CC(C)COc1cc(COc2ccc(Sc3ccncc3C3NC(=O)NC3=O)cc2)ccn1` (stereo not shown) [PC-33], for which the half-maximal inhibitory concentration (IC50) is 100 to 1000 nM.

Take `Cc1cccc(COc2ccc([S+]([O-])c3ccncc3C3NC(=O)NC3=O)cc2)c1` (stereo not shown) [PC-5]: the IC50 was 100 to 1000 nM.

As for `Cc1cc(COc2ccc(Oc3ccncc3C3NC(=O)NC3=O)cc2)ccn1` (stereo not shown) [PC-27], the IC50 lay within 10 to 100 nM.

Turning to `Cc1cccc(COc2ccc(Sc3cc[n+](O)cc3C3NC(=O)NC3=O)cc2)c1` (stereo not shown) [OC-3], the IC50 was in the range of 10 to 100 nM.

As to `Cc1cc(COc2ccc(Sc3cc(C)ncc3C3NC(=O)NC3=O)cc2)ccn1` (stereo not shown) [PC-45], the IC50 was in the range of 10 to 100 nM.

On to `Cc1cccc(COc2ccc(Sc3ncccc3C3NC(=O)NC3=O)cc2)c1` (stereo not shown) [PC-1], for which the IC50 lay within 10 to 100 nM.

Take `Cc1cccc(COc2ccc(Sc3cnn(C)c3C3NC(=O)NC3=O)cc2)c1` (stereo not shown) [OC-5]: the IC50 lay within 10 to 100 nM.

For the compound `Cc1cccc(COc2ccc(Oc3ccncc3C3NC(=O)NC3=O)cc2)c1` (stereo not shown) [PC-26], the IC50 is 10 to 100 nM.

Take `NC(=O)c1cc(COc2ccc(Sc3ccncc3C3NC(=O)NC3=O)cc2)ccn1` (stereo not shown) [PC-60]: the IC50 fell in the range of 10 to 100 nM.

Consider `Cc1cccc(COc2ccc([S+]([O-])c3ccccc3C3NC(=O)NC3=O)cc2)c1` (stereo not shown) [OC-2], for which the IC50 was in the range of 100 to 1000 nM.

Regarding `CNC(=O)c1cccc(COc2ccc(Sc3ccncc3C3NC(=O)NC3=O)cc2)c1` (stereo not shown) [PC-29], the IC50 fell in the range of 10 to 100 nM.

Take `Cc1cc(COc2ccc(Sc3ccncc3C3NC(=O)NC3=O)cn2)ccn1` (stereo not shown) [PC-61]: the IC50 lay in the range of 100 to 1000 nM.

Consider `Cc1cc(OCc2ccc(Sc3ccncc3C3NC(=O)NC3=O)cc2)ccn1` (stereo not shown) [PC-44], for which the IC50 lay within 10 to 100 nM.

With `NC(=O)c1cncc(COc2ccc(Sc3ccncc3C3NC(=O)NC3=O)cc2)c1` (stereo not shown) [PC-34], the IC50 fell in the range of 10 to 100 nM.

In the case of `Cc1cccc(COc2ccc(Sc3cnccc3C3NC(=O)NC3=O)cc2)c1` (stereo not shown) [PC-4], the IC50 is 10 to 100 nM.

Regarding `O=C1NC(=O)C(c2cnccc2Oc2ccc(OCc3cccc(CO)c3)cc2)N1` (stereo not shown) [PC-25], the IC50 was in the range of 10 to 100 nM.

Turning to `Cc1cccc(COc2ccc(Sc3ncoc3C3NC(=O)NC3=O)cc2)c1` (stereo not shown) [OC-10], the IC50 was in the range of 10 to 100 nM.

`CCCOc1cccc(COc2ccc(Sc3ccsc3C3NC(=O)NC3=O)cc2)c1` (stereo not shown) [TC1]: the IC50 was in the range of 100 to 1000 nM.

With `O=C1NC(=O)C(c2ccncc2Sc2ccc(OCc3ccc(CO)cc3)cc2)N1` (stereo not shown) [PC-14], the IC50 was 10 to 100 nM.

Regarding `Cc1cc(CNc2ccc(Sc3ccncc3C3NC(=O)NC3=O)cc2)ccn1` (stereo not shown) [PC-56], the IC50 lay within 10 to 100 nM.

For the compound `O=C1NC(=O)C(c2cnccc2Sc2ccc(OCc3ccc(CO)cc3)cc2)N1` (stereo not shown) [PC-7], the IC50 lay within 10 to 100 nM.

On to `CC(C)[C@H](N)C(=O)OCc1cccc(COc2ccc(Sc3ccncc3C3NC(=O)NC3=O)cc2)c1` (stereo partly shown) [PC-11], for which the IC50 was in the range of 10 to 100 nM.

On to `Cc1cc(COc2ccc(Sc3ccncc3C3NC(=O)N(C)C3=O)cc2)ccn1` (stereo not shown) [PC-41], for which the IC50 was 100 to 1000 nM.

Consider `CC(C)Oc1cccc(COc2ccc(Sc3ccsc3C3NC(=O)NC3=O)cc2)c1` (stereo not shown) [TC3], for which the IC50 fell in the range of 100 to 1000 nM.

Turning to `O=C1NC(=O)C(c2cnccc2Sc2ccc(OCc3ccccc3CO)cc2)N1` (stereo not shown) [PC-9], the IC50 was 10 to 100 nM.

Take `Cc1cccc(COc2ccc(S(=O)(=O)c3ccncc3C3NC(=O)NC3=O)cc2)c1` (stereo not shown) [PC-6]: the IC50 is 100 to 1000 nM.

Take `Cc1cncc(COc2ccc(Sc3ccncc3C3NC(=O)NC3=O)cc2)c1` (stereo not shown) [PC-17]: the IC50 lay within 100 to 1000 nM.

For `O=C1NC(=O)C(c2cnccc2Sc2ccc(OCc3ccnc(O)c3)cc2)N1` (stereo not shown) [PC-35], the IC50 is 100 to 1000 nM.

As for `O=C1NC(=O)C(c2cnccc2Sc2ccc(OCc3cncc(CO)c3)cc2)N1` (stereo not shown) [PC-39], the IC50 was 100 to 1000 nM.

Take `CNC(=O)c1cncc(COc2ccc(Sc3ccncc3C3NC(=O)NC3=O)cc2)c1` (stereo not shown) [PC-36]: the IC50 was 100 to 1000 nM.
